For 25 compounds, IC50 results are on record in patent US9394282B2, “Pyrazole carboxamides as Janus kinase inhibitors” (Merck Sharp & Dohme Corp., priority 2011, dated 2016).

pIC50: −log10 of the molar value.

In assay [1] the target is JAK2 (Homo sapiens (Human), UniProt O60674). Kind of assay: Jak biochemical HTRF assay, JAK2. Conditions: recombinant purified GST-tagged catalytic domain, HTRF format. An excerpt:
(§1) Jak Biochemical HTRF Assay Protocol
(§2) Subsequent reagent additions employed an Agilent Bravo.

Assay [2] addresses JAK1 (Homo sapiens (Human), UniProt P23458). The assay is described as follows: Jak biochemical HTRF assay, JAK1. The conditions noted are these: recombinant purified GST-tagged catalytic domain; HTRF format; [ATP] 31.8 μM.
Source text: as §1, §2
(Time-resolved FRET reads energy transfer from a long-lived donor to a nearby acceptor.)

Sequence of JAK1 (P23458 875-1153): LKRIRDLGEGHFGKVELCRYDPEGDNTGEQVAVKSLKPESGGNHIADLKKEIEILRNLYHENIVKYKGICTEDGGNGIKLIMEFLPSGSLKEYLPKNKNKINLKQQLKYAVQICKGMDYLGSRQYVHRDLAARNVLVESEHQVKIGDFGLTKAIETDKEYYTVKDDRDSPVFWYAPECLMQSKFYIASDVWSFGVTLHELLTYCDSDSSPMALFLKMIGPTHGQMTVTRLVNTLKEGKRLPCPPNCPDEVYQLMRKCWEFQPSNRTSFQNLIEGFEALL
Sequence of JAK2 (O60674 849-1124): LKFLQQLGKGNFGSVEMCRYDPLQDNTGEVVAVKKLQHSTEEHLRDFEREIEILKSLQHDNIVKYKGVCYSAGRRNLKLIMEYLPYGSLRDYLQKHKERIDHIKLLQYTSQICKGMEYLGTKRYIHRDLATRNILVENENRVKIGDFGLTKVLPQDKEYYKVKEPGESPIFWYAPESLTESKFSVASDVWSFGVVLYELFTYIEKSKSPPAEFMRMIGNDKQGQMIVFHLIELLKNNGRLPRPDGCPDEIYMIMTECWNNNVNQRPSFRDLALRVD

`CN(C)CCOC(=O)N1CC[C@@H](C#N)C(n2cc(C(N)=O)c(Nc3ccc(F)cc3)n2)C1` (mixture of isomers) [Example 5-86, 2-(dimethylamino)ethyl (3S,4R and 3R,4S)-3-{4-carbamoyl-3-[(4-fluorophenyl)amino]-1H-pyrazol-1-yl}-4-cyanopiperidine-1-carboxylate]: the figures for the pIC50 in assay [1] ([ATP] 8.5 μM) and in assay [2] were 6.45 and 8.05, respectively.

`N#C[C@@H]1CN(C(=O)OCC(F)(F)CO)CC[C@H]1n1cc(C(N)=O)c(Nc2ccc(F)cc2)n1` (racemic) [Example 5-20, 2,2-difluoro-3-hydroxypropyl (3R,4R and 3S,4S)-4-{4-carbamoyl-3-[(4-fluorophenyl)amino]-1H-pyrazol-1-yl}-3-cyanopiperidine-1-carboxylate]: the results for the negative-log IC50 (pIC50) in assay [1] ([ATP] 8.5 μM) and in assay [2] were 6.97 and 8.30, respectively.

With `N#C[C@@H]1CCN(C(=O)OC(CF)CF)CC1n1cc(C(N)=O)c(Nc2ccc(F)cc2)n1` (mixture of isomers) [Example 5-71, 2-fluoro-1-(fluoromethyl)ethyl (3S,4R and 3R,4S)-3-{4-carbamoyl-3-[(4-fluorophenyl)amino]-1H-pyrazol-1-yl}-4-cyanopiperidine-1-carboxylate], the pIC50 (usually the IC50 on a negative log10 scale, so that one unit is a factor of ten) in assay [1] ([ATP] 8.5 μM) was 7.36; in assay [2] it was 8.40.

Consider `N#C[C@@H]1CNCCC1n1cc(C(N)=O)c(Nc2ccc(F)cc2)n1` (mixture of isomers) [Example 3-3, 1-[(3R,4R and 3S,4S)-3-cyanopiperidin-4-yl]-3-[(4-fluorophenyl)amino]-1H-pyrazole-4-carboxamide], for which the values for the pIC50 in assay [1] ([ATP] 8.5 μM) and in assay [2] were 6.20 and 6.99, respectively.

With `N#C[C@@H]1CCN(Cc2cocn2)C[C@H]1n1cc(C(N)=O)c(Nc2ccc(F)cc2)n1` (racemic) [Example 6-4, 1-[(3S,4R and 3R,4S)-4-cyano-1-(1,3-oxazol-4-ylmethyl)piperidin-3-yl]-3-[(4-fluorophenyl)amino]-1H-pyrazole-4-carboxamide], the results for the negative logarithm of the IC50 (pIC50) in assay [1] ([ATP] 8.5 μM) and in assay [2] were 7.74 and 8.70, respectively.

Take `N#C[C@@H]1CN(C(=O)OC2COC2)CC[C@@H]1n1cc(C(N)=O)c(Nc2ccc(F)cc2)n1` (racemic) [Example 5-57, oxetan-3-yl (3R,4S and 3S,4R)-4-{4-carbamoyl-3-[(4-fluorophenyl)amino]-1H-pyrazol-1-yl}-3-cyanopiperidine-1-carboxylate]: the negative logarithm of the IC50 (pIC50) in assay [1] ([ATP] 8.5 μM) was 5.95; in assay [2], 6.53.

With `N#C[C@@H]1CCN(Cc2cnccn2)C[C@H]1n1cc(C(N)=O)c(Nc2ccc(F)cc2)n1` (racemic) [Example 6-2, 1-[(3S,4R and 3R,4S)-4-cyano-1-(pyrazin-2-ylmethyl)piperidin-3-yl]-3-[(4-fluorophenyl)amino]-1H-pyrazole-4-carboxamide], the figures for the pIC50 in assay [1] ([ATP] 8.5 μM) and in assay [2] were 7.59 and 8.70, respectively.

As to `N#C[C@@H]1CCN(CCC2CCOCC2)C[C@H]1n1cc(C(N)=O)c(Nc2ccc(F)cc2)n1` (racemic) [Example 6-10, 1-{(3S,4R and 3R,4S)-4-cyano-1-[2-(tetrahydro-2H-pyran-4-yl)ethyl]piperidin-3-yl}-3-[(4-fluorophenyl)amino]-1H-pyrazole-4-carboxamide], the pIC50 in assay [1] ([ATP] 8.5 μM) is 7.13; in assay [2], 8.22.

For `CN1CCC(COC(=O)N2CC[C@@H](n3cc(C(N)=O)c(Nc4ccc(F)cc4)n3)[C@H](C#N)C2)CC1` (racemic) [Example 5-7, (1-methylpiperidin-4-yl)methyl (3R,4R and 3S,4S)-4-{4-carbamoyl-3-[(4-fluorophenyl)amino]-1H-pyrazol-1-yl}-3-cyanopiperidine-1-carboxylate], the pIC50 is 5.96 in assay [1] ([ATP] 8.5 μM) and 7.64 in assay [2].

As for `N#C[C@@H]1CCN(C(=O)OCc2ccccc2)CC1n1cc(C(N)=O)c(Nc2ccc(F)cc2)n1` (mixture of isomers) [Example 5-82, benzyl (3S,4R and 3R,4S)-3-{4-carbamoyl-3-[(4-fluorophenyl)amino]-1H-pyrazol-1-yl}-4-cyanopiperidine-1-carboxylate], the pIC50 is 7.28 in assay [1] ([ATP] 8.5 μM) and 8.70 in assay [2].

Regarding `C[C@]1(C#N)CS(=O)(=O)CC1n1cc(C(N)=O)c(Nc2ccc(F)cc2)n1` (stereo partly drawn) [Example 13-5, 1-((3S,4R or 3R4S)-4-cyano-4-methyl-1,1-dioxidotetrahydrothiophen-3-yl)-3-((4-fluorophenyl)amino)-1H-pyrazole-4-carboxamide], the pIC50 in assay [1] ([ATP] […]) was 8.22; in assay [2], 9.30.

With `N#C[C@@H]1CCN(Cc2ncco2)C[C@H]1n1cc(C(N)=O)c(Nc2ccc(F)cc2)n1` (racemic) [Example 6-8, 1-[(3S,4R and 3R,4S)-4-cyano-1-(1,3-oxazol-2-ylmethyl)piperidin-3-yl]-3-[(4-fluorophenyl)amino]-1H-pyrazole-4-carboxamide], the pIC50 in assay [1] ([ATP] 8.5 μM) was 7.66; in assay [2], 8.70.

Turning to `N#Cc1ccc(Nc2nn([C@H]3COCC[C@@H]3C#N)cc2C(N)=O)cc1` (single isomer, unassigned) [Example 9-35, 3-[(4-cyanophenyl)amino]-1-[(3R, 4S or 3S,4R)-4-cyanotetrahydro-2H-pyran-3-yl]-1H-pyrazole-4-carboxamide], the negative logarithm of the IC50 (pIC50) in assay [1] ([ATP] […]) is 9.15; in assay [2] it was 10.15.

For the compound `N#C[C@H]1CCOC[C@@H]1n1cc(C(N)=O)c(Nc2cncc(F)c2)n1` (single isomer, unassigned) [Example 9-30, 1-[(3R,4S or 3S,4R)-4-cyanotetrahydro-2H-pyran-3-yl]-3-[(5-fluoropyridin-3-yl)amino]-1H-pyrazole-4-carboxamide], the pIC50 in assay [1] ([ATP] 8.5 μM) is 6.51; in assay [2] it was 7.08.

For the compound `N#C[C@@H]1CN(CC2CCC2)CC[C@H]1n1cc(C(N)=O)c(Nc2ccc(F)cc2)n1` [Example 6-40, 1-[(3R,4R)-3-cyano-1-(cyclobutylmethyl)piperidin-4-yl]-3-[(4-fluorophenyl)amino]-1H-pyrazole-4-carboxamide], the pIC50 in assay [1] ([ATP] […]) is 7.18; in assay [2], 8.30.

As for `CC(C)(C)OC(=O)N1CC[C@@H](n2cc(C(N)=O)c(Nc3ccccc3)n2)[C@H](C#N)C1` (mixture of isomers) [Example 1-2, tert-butyl(3S,4S and 3R,4R)-4-[4-(aminocarbonyl)-3-anilino-1H-pyrazol-1-yl]-3-cyanopiperidine-1-carboxylate], the figures for the pIC50 in assay [1] ([ATP] […]) and in assay [2] were 6.30 and 7.62, respectively.

For `CC(OC(=O)N1CC[C@@H](n2cc(C(N)=O)c(Nc3ccc(F)cc3)n2)[C@H](C#N)C1)C1CC1` (mixture of isomers) [Example 5-35, 1-cyclopropylethyl (3R,4R and 3S,4S)-4-{4-carbamoyl-3-[(4-fluorophenyl)amino]-1H-pyrazol-1-yl}-3-cyanopiperidine-1-carboxylate], the pIC50 in assay [1] ([ATP] 8.5 μM) is 6.33; in assay [2], 7.72.

As to `N#C[C@@H]1CN(C(=O)OC2COC2)CC[C@H]1n1cc(C(N)=O)c(Nc2ccc(F)cc2)n1` (racemic) [Example 5-5, oxetan-3-yl (3R,4R and 3S,4S)-4-{4-carbamoyl-3-[(4-fluorophenyl)amino]-1H-pyrazol-1-yl}-3-cyanopiperidine-1-carboxylate], the negative logarithm of the IC50 (pIC50) in assay [1] ([ATP] 8.5 μM) was 6.73; in assay [2], 7.92.

As for `N#C[C@@H]1CN(Cc2cccnc2F)CC[C@H]1n1cc(C(N)=O)c(Nc2ccc(F)cc2)n1` (racemic) [Example 6-35, 1-{(3R,4R and 3S,4S)-3-cyano-1-[(2-fluoropyridin-3-yl)methyl]piperidin-4-yl}-3-[(4-fluorophenyl)amino]-1H-pyrazole-4-carboxamide], the negative-log IC50 (pIC50) was 7.10 in assay [1] ([ATP] 8.5 μM) and 8.30 in assay [2].

Turning to `N#C[C@@H]1CNCC[C@H]1n1cc(C(N)=O)c(Nc2ccc(F)cc2)n1` (racemic) [Example 3-2, 1-[(3R,4R and 3S,4S)-3-cyanopiperidin-4-yl]-3-[(4-fluorophenyl)amino]-1H-pyrazole-4-carboxamide], the figures for the pIC50 in assay [1] ([ATP] 8.5 μM) and in assay [2] were 7.09 and 8.15, respectively.

Consider `CC(OC(=O)N1CC[C@@H](C#N)C(n2cc(C(N)=O)c(Nc3ccc(F)cc3)n2)C1)C1CC1` (mixture of isomers) [Example 5-73, 1-cyclopropylethyl (3S,4R and 3R,4S)-3-{4-carbamoyl-3-[(4-fluorophenyl)amino]-1H-pyrazol-1-yl}-4-cyanopiperidine-1-carboxylate], for which the pIC50 is 7.11 in assay [1] ([ATP] 8.5 μM) and 8.22 in assay [2].

Regarding `Cc1ncoc1CN1CC[C@@H](C#N)[C@H](n2cc(C(N)=O)c(Nc3ccc(F)cc3)n2)C1` [Example 7-2, 1-{(3S,4R, 3R,4S)-4-cyano-1-[(4-methyl-1,3-oxazol-5-yl)methyl]piperidin-3-yl}-3-[(4-fluorophenyl)amino]-1H-pyrazole-4-carboxamide], the pIC50 in assay [1] ([ATP] […]) is 8.10; in assay [2], 9.22.

In the case of `N#C[C@@H]1CN(C(=O)OCCc2ccccc2)CC[C@H]1n1cc(C(N)=O)c(Nc2ccc(F)cc2)n1` (racemic) [Example 5-36, 2-phenylethyl (3R,4R and 3S,4S)-4-{4-carbamoyl-3-[(4-fluorophenyl)amino]-1H-pyrazol-1-yl}-3-cyanopiperidine-1-carboxylate], the results for the negative-log IC50 (pIC50) in assay [1] ([ATP] 8.5 μM) and in assay [2] were 6.08 and 7.07, respectively.

With `CC(C)(C)OC(=O)N1CC[C@H](C#N)C(n2cc(C(N)=O)c(Nc3ccccc3)n2)C1` (mixture of isomers) [Example 1-3, tert-butyl(3R,4S and 3S,4R)-3-[4-(aminocarbonyl)-3-anilino-1H-pyrazol-1-yl]-4-cyanopiperidine-1-carboxylate], the negative-log IC50 (pIC50) in assay [1] ([ATP] 8.5 μM) was 7.39; in assay [2] it was 8.30.

For the compound `CC(OC(=O)N1CC[C@@H](n2cc(C(N)=O)c(Nc3ccc(F)cc3)n2)[C@H](C#N)C1)C(F)(F)F` (mixture of isomers) [Example 5-1, 2,2,2-Trifluoro-1-methylethyl(3R,4R and 3S,4S)-4-{4-carbamoyl-3-[(4-fluorophenyl)amino]-1H-pyrazol-1-yl}-3-cyanopiperidine-1-carboxylate], the values for the negative logarithm of the IC50 (pIC50) in assay [1] ([ATP] 8.5 μM) and in assay [2] were 6.41 and 7.82, respectively.
